Experimental data: patent US20240415914A1, “Water Dispersible Cannabinoid Compositions” (priority 2021, published 2024)

Test: Stability of cannabinoid and Vitamin E components of Beverage 1 (AB White) stored at 8° C. and 21-25° C., LCMSMS over 570 days
Type: physicochemical
Conditions: for Chemical stability over the entire period (result in words): AB White, 570 days; for Stability in AB White, 8° C. (content by LCMSMS): beverage stored at 8° C.; for Stability in AB White, 21-25° C. (content by LCMSMS): beverage stored at 21-25° C.
Method: The LCMSMS was calibrated for 0-1000 ng/ml cannabinoids with the same resin material used in the preparation of the concentrates. At each time period, 100 ml of beverage was diluted with 10 ml of methanol and injected into the LCMSMS for analysis.

## CCCCCc1cc(O)c2c(c1)OC(C)(C)[C@@H]1CCC(C)=C[C@@H]21 [D9 THC, delta-9-tetrahydrocannabinol, reference compound]
Stored at 8° C.
  Chemical stability over the entire period (result in words): high degree of stability
Stored at 21-25° C.
  Chemical stability over the entire period (result in words): high degree of stability
Day 0
  Stability in AB White, 8° C. (content by LCMSMS): 12.2 µg/mL
  Stability in AB White, 21-25° C. (content by LCMSMS): 12.2 µg/mL
Day 1
  Stability in AB White, 8° C. (content by LCMSMS): 12.20 µg/mL
  Stability in AB White, 21-25° C. (content by LCMSMS): 11.8 µg/mL
Day 2
  Stability in AB White, 8° C. (content by LCMSMS): 11.91 µg/mL
  Stability in AB White, 21-25° C. (content by LCMSMS): 12.0 µg/mL
Day 3
  Stability in AB White, 8° C. (content by LCMSMS): 12.25 µg/mL
  Stability in AB White, 21-25° C. (content by LCMSMS): 11.9 µg/mL
Day 5
  Stability in AB White, 8° C. (content by LCMSMS): 12.11 µg/mL
  Stability in AB White, 21-25° C. (content by LCMSMS): 12.1 µg/mL
Day 8
  Stability in AB White, 8° C. (content by LCMSMS): 11.83 µg/mL
  Stability in AB White, 21-25° C. (content by LCMSMS): 12.3 µg/mL
Day 9
  Stability in AB White, 8° C. (content by LCMSMS): 12.14 µg/mL
  Stability in AB White, 21-25° C. (content by LCMSMS): 11.8 µg/mL
Day 10
  Stability in AB White, 8° C. (content by LCMSMS): 12.07 µg/mL
  Stability in AB White, 21-25° C. (content by LCMSMS): 11.7 µg/mL
Day 11
  Stability in AB White, 8° C. (content by LCMSMS): 11.83 µg/mL
  Stability in AB White, 21-25° C. (content by LCMSMS): 12.1 µg/mL
Day 12
  Stability in AB White, 8° C. (content by LCMSMS): 11.88 µg/mL
  Stability in AB White, 21-25° C. (content by LCMSMS): 11.9 µg/mL
Day 15
  Stability in AB White, 8° C. (content by LCMSMS): 12.08 µg/mL
  Stability in AB White, 21-25° C. (content by LCMSMS): 12.1 µg/mL
Day 16
  Stability in AB White, 8° C. (content by LCMSMS): 12.18 µg/mL
  Stability in AB White, 21-25° C. (content by LCMSMS): 12.1 µg/mL
Day 17
  Stability in AB White, 8° C. (content by LCMSMS): 12.05 µg/mL
  Stability in AB White, 21-25° C. (content by LCMSMS): 11.9 µg/mL
Day 18
  Stability in AB White, 8° C. (content by LCMSMS): 12.00 µg/mL
  Stability in AB White, 21-25° C. (content by LCMSMS): 11.8 µg/mL
Day 19
  Stability in AB White, 8° C. (content by LCMSMS): 12.11 µg/mL
  Stability in AB White, 21-25° C. (content by LCMSMS): 12.3 µg/mL
Day 22
  Stability in AB White, 8° C. (content by LCMSMS): 11.97 µg/mL
  Stability in AB White, 21-25° C. (content by LCMSMS): 11.9 µg/mL
Day 23
  Stability in AB White, 8° C. (content by LCMSMS): 12.03 µg/mL
  Stability in AB White, 21-25° C. (content by LCMSMS): 12.0 µg/mL
Day 24
  Stability in AB White, 8° C. (content by LCMSMS): 11.87 µg/mL
  Stability in AB White, 21-25° C. (content by LCMSMS): 12.1 µg/mL
Day 25
  Stability in AB White, 8° C. (content by LCMSMS): 11.99 µg/mL
  Stability in AB White, 21-25° C. (content by LCMSMS): 12.3 µg/mL
Day 26
  Stability in AB White, 8° C. (content by LCMSMS): 11.97 µg/mL
  Stability in AB White, 21-25° C. (content by LCMSMS): 12.1 µg/mL
Day 29
  Stability in AB White, 8° C. (content by LCMSMS): 12.25 µg/mL
  Stability in AB White, 21-25° C. (content by LCMSMS): 11.9 µg/mL
Day 30
  Stability in AB White, 8° C. (content by LCMSMS): 12.05 µg/mL
  Stability in AB White, 21-25° C. (content by LCMSMS): 11.9 µg/mL
Day 60
  Stability in AB White, 8° C. (content by LCMSMS): 11.77 µg/mL
  Stability in AB White, 21-25° C. (content by LCMSMS): 11.9 µg/mL
Day 90
  Stability in AB White, 8° C. (content by LCMSMS): 11.92 µg/mL
  Stability in AB White, 21-25° C. (content by LCMSMS): 12.0 µg/mL
Day 120
  Stability in AB White, 8° C. (content by LCMSMS): 11.79 µg/mL
  Stability in AB White, 21-25° C. (content by LCMSMS): 11.7 µg/mL
Day 150
  Stability in AB White, 8° C. (content by LCMSMS): 12.07 µg/mL
  Stability in AB White, 21-25° C. (content by LCMSMS): 11.7 µg/mL
Day 180
  Stability in AB White, 8° C. (content by LCMSMS): 11.66 µg/mL
  Stability in AB White, 21-25° C. (content by LCMSMS): 11.9 µg/mL
Day 210
  Stability in AB White, 8° C. (content by LCMSMS): 11.79 µg/mL
  Stability in AB White, 21-25° C. (content by LCMSMS): 11.4 µg/mL
Day 240
  Stability in AB White, 8° C. (content by LCMSMS): 11.70 µg/mL
  Stability in AB White, 21-25° C. (content by LCMSMS): 11.7 µg/mL
Day 270
  Stability in AB White, 8° C. (content by LCMSMS): 11.98 µg/mL
  Stability in AB White, 21-25° C. (content by LCMSMS): 11.9 µg/mL
Day 300
  Stability in AB White, 8° C. (content by LCMSMS): 11.70 µg/mL
  Stability in AB White, 21-25° C. (content by LCMSMS): 12.0 µg/mL
Day 330
  Stability in AB White, 8° C. (content by LCMSMS): 11.68 µg/mL
  Stability in AB White, 21-25° C. (content by LCMSMS): 11.4 µg/mL
Day 360
  Stability in AB White, 8° C. (content by LCMSMS): 11.88 µg/mL
  Stability in AB White, 21-25° C. (content by LCMSMS): 11.7 µg/mL
Day 390
  Stability in AB White, 8° C. (content by LCMSMS): 11.85 µg/mL
  Stability in AB White, 21-25° C. (content by LCMSMS): 11.4 µg/mL
Day 420
  Stability in AB White, 8° C. (content by LCMSMS): 11.77 µg/mL
  Stability in AB White, 21-25° C. (content by LCMSMS): 11.7 µg/mL
Day 450
  Stability in AB White, 8° C. (content by LCMSMS): 11.80 µg/mL
  Stability in AB White, 21-25° C. (content by LCMSMS): 11.7 µg/mL
Day 480
  Stability in AB White, 8° C. (content by LCMSMS): 11.60 µg/mL
  Stability in AB White, 21-25° C. (content by LCMSMS): 11.2 µg/mL
Day 510
  Stability in AB White, 8° C. (content by LCMSMS): 11.33 µg/mL
  Stability in AB White, 21-25° C. (content by LCMSMS): 11.2 µg/mL
Day 540
  Stability in AB White, 8° C. (content by LCMSMS): 11.27 µg/mL
  Stability in AB White, 21-25° C. (content by LCMSMS): 11.2 µg/mL
Day 570
  Stability in AB White, 8° C. (content by LCMSMS): 11.21 µg/mL
  Stability in AB White, 21-25° C. (content by LCMSMS): 11.2 µg/mL
